Laboratory results published in publication PMC8740755 (Proceedings of the National Academy of Sciences of the …, 2021).

Molecular target: WipA (Legionella pneumophila, UniProt Q5ZS02)
Sequence (Q5ZS02 1-520): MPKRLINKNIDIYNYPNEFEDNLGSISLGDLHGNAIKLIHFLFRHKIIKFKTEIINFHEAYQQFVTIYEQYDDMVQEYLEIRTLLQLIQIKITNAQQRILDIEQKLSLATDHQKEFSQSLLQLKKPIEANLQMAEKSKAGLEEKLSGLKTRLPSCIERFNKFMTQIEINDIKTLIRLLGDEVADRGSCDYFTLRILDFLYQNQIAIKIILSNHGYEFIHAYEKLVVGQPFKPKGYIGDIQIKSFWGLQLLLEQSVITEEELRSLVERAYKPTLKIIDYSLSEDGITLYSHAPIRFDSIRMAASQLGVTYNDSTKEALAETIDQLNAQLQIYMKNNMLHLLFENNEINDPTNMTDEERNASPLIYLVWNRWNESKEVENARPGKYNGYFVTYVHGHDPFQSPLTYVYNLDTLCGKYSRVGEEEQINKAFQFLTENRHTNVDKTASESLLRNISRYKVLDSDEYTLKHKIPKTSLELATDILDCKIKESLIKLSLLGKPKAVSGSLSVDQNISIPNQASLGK

O=[N+]([O-])c1ccc(OP(=O)(O)O)cc1 [pNPP]
free phosphate by malachite green assay: exhibited robust activity, and a mutation in its active site abolished such activity
